Patent publication US20250257401A1, “BIOMARKER FOR TUBEROUS SCLEROSIS COMPLEX WITH NO MUTATION IDENTIFIED IN TSC1 OR TSC2 GENE, AND USES THEREOF” (Guangzhou KingMed Transformative Medicine Institute Co., …, priority 2022, published 2025)

Tests used:
Type in all cases: cell-based, human
HEK293 cells = experiment: Dose-dependent cell viability, preliminary IC50 experiment (HEK293); conditions: FIG. 6
HaCaT cells = experiment: Dose-dependent cell viability, preliminary IC50 experiment (HaCaT); conditions: FIG. 6
IQGAP2-silenced cells = experiment: Cell proliferation of IQGAP2-silenced cells after administration of inhibitors (CCK8); conditions: IQGAP2-silenced HaCaT and HEK293 cells; each inhibitor in a dose of IC50; FIG. 7 and FIG. 8
Description: That is, the pathway was further determined by verifying whether the cell proliferation caused by IQGAP2 silencing can be alleviated by inhibiting the AKT activity and mTORC1 activity (key factors of the mTOR pathway) in IQGAP2-silenced cells with the inhibitors.
Then, HaCaT cells and HEK293 cells were administrated with each inhibitor in a dose of IC50.

IQGAP2 gene [1] = experiment: IQGAP2 silencing by shRNA, gene and protein expression (HEK293); conditions: HEK293 cells; lentiviral transduction; 72 hours; FIG. 3
Description: (§1) To verify whether the abnormal IQGAP2 affected cell proliferation, IQGAP2-silenced cells were constructed using an RNAi approach. Since TSC could affect the skin and kidney of the patients, human keratinocytes (HaCaT) cells and human embryonic kidney 293 (HEK 293) cells were chosen as cell models. The shRNA sequence was designed and constructed for the IQGAP2 gene (as shown in Table 1), and IQGAP2-silenced HaCaT cells and IQGAP2-silenced HEK293 cells were obtained by lentiviral transduction. Subsequently, the cell proliferation of IQGAP2-silenced cells was detected at 24, 48, and 72 hours by using Cell Counting Kit 8 (CCK8).
(§2) The results were shown in FIGS. 3 to 4, and FIG. 3 depicted the gene expression level of IQGAP2-silenced human keratinocytes cells and IQGAP2-silenced human embryonic kidney 293 cells at 72 hours. […] And Control represented a control group, shGFP represented the empty vector control group, sh IQ IQGAP2-1, sh IQ IQGAP2-2, and sh IQ IQGAP2-3 represented the corresponding shRNA-1 to shRNA-3 primer silencing groups (repeated in triplicate for each group), respectively, and GAPDH represented the internal reference gene.

IQGAP2 gene [2] = experiment: IQGAP2 silencing by shRNA, gene and protein expression (HaCaT); conditions: HaCaT cells; lentiviral transduction; 72 hours; FIG. 3
Description: as §1, §2

Which IC50 (HEK293 cells) does the source give for `O=c1[nH]c2ccccc2n1C1CCN(Cc2ccc(-c3nc4cc5[nH]cnc5cc4nc3-c3ccccc3)cc2)CC1` [AKT inhibitor VIII] here?
The IC50 was 12.5 µM.

What about the IC50 (HaCaT cells) of the same molecule?
Its IC50 is 25 µM.

What about the “cell proliferation of IQGAP2-silenced cells” value (IQGAP2-silenced cells) of the same molecule?
The value was “reduce the cell proliferation”.

How did the IC50 (HEK293 cells; Homo sapiens) turn out when `CO[C@H]1C[C@@H]2CC[C@@H](C)[C@@](O)(O2)C(=O)C(=O)N2CCCC[C@H]2C(=O)O[C@H]([C@H](C)C[C@@H]2CC[C@@H](O)[C@H](OC)C2)CC(=O)[C@H](C)/C=C(\C)[C@@H](O)[C@@H](OC)C(=O)[C@H](C)C[C@H](C)/C=C/C=C/C=C/1C` [Rapamycin] was run?
The IC50 was 12.5 µM.

What about the IC50 (HaCaT cells; Homo sapiens) of the same molecule?
Its IC50 is 50 µM.

With “IQGAP2-shRNA-1: IQGAP2-silenced shRNA sequence 5′-GCTCCTACCTACTGCGAATAT-3′ (SEQ ID NO. 1) (GCUCCUACCUACUGCGAAUAU)” as the molecule, how does the IQGAP2 silencing (IQGAP2 gene [1]) read?
The IQGAP2 silencing was “optimum silencing”.

How did the IQGAP2 silencing (IQGAP2 gene [2]) turn out when “IQGAP2-shRNA-3: IQGAP2-silenced shRNA sequence 5′-GCTCCAGATGGCTTTGATATC-3′ (SEQ ID NO. 3) (GCUCCAGAUGGCUUUGAUAUC)” was run?
The IQGAP2 silencing was “optimum silencing”.
